Source: patent US20240180900A1, “COMPOUNDS AND METHODS FOR THE TARGETED DEGRADATION OF ANDROGEN RECEPTOR” (Arvinas Operations, Inc., priority 2022, published 2024)
Where two headings read alike, the source gives them in different places.

Key:
AR WT = target: T1, AR WT (Homo sapiens, UniProt P10275); experiment: AR degradation in T-Rex-293 cell line, wild-type AR; type: cell-based; details: T-Rex-293, ELISA
T1 construct: expressed in transfected cells; host or cells: T-REx-293
Procedure: (§1) FIG. 3 is a graph showing Compound A's ability to degrade clinically relevant mutated forms AR.
Plasmids expressing AR WT or the indicated AR mutants were stably transfected into HEK293 cells. Each cell line was treated with indicated concentrations of Compound A for 24 hours. AR levels were determined by AR ELISA without background subtraction. […]
(§2) To assess the ability of Compound A to degrade variants of the AR, vectors expressing wild-type AR or mutant AR proteins harboring clinically observed mutations in the ligand binding domain (13 with single amino acid changes or 4 with 2 amino acid changes) (Azad A. A., Volik S. V., Wyatt A. W., et al. Androgen receptor gene aberrations in circulating cell-free DNA: biomarkers of therapeutic resistance in castration-resistant prostate cancer. Clin Cancer Res. 2015; 21:2315-2324; Robinson D., Van Allen E. M., Wu Y. M., et al. Integrative clinical genomics of advanced prostate cancer. Cell. 2015; 161:1215-1228; Ledet E. M., Lilly M. B., Sonpavde G., et al. Comprehensive analysis of AR alterations in circulating tumor DNA from patients with advanced prostate cancer. Oncologist.

[1] = preclinical exposure in the VCaP tumor xenograft mouse model; details: CB17/scid, in vivo, oral, 1 mg/kg/day, read-out: AUCinf, minimally efficacious preclinical exposure
Procedure: Exposure at the 100 mg QD dose (N=6) with mean steady-state Compound A AUC0-24=4,610 ng*hr/mL on Cycle 1 Day 21 achieved the minimally efficacious preclinical exposure associated with tumor growth inhibition in the VCaP tumor xenograft mouse model (AUCinf=3,930 ng*hr/mL at 1 mg/kg/day dose; data not included).

VCaP tumor xenograft = experiment: castrated mouse VCaP xenograft model, tumor growth inhibition; type: in vivo; details: castrated mice
Procedure: Treatment groups (n=10 per group) were compared by one-way analysis of variance (ANOVA). Note: ns: not significant, *: p≤0.05, **: p≤0.01, ***: p≤0.001.
The anti-tumor growth effects of Compound A in vivo were evaluated in the castrated mouse VCaP xenograft model. Briefly, 6- to 8-week-old male CB17/scid mice were implanted with 3×10^6 VCaP tumor cells in the flank region. Once the tumors reached a volume of approximately 100 mm^3, the mice were surgically castrated.

VCaP cells = experiment: VCaP cell proliferation in a high androgen environment (R1881); type: cell-based, human; details: Compound A 300 nM vs enzalutamide 1,000 nM, R1881 0.01 to 1 nM, 5 days
Procedure: Cell proliferation was determined using the CellTiter Glo® assay.

[2] = preliminary PK in mCRPC participants (Phase 1/2); type: in vivo, human
Procedure: A chiral bioanalytical method by LC-MS/MS has been developed to characterize the PK of Compound A. Pharmacokinetic analyses were performed using noncompartmental analysis methods.
Mean steady state peak/trough ratio is less than 2, which indicates minimal fluctuation in plasma concentrations once steady state is achieved. Steady state occurs within 3 weeks into treatment.
An ongoing, open-label, Phase 1/2 study in male participants with mCRPC. The Phase 1 dose escalation investigated Compound A doses of 20 mg, 40 mg, 80 mg, 100 mg, 160 mg, 200 mg, 320 mg, 400 mg, 480 mg, and 500 mg administered QD. […] Doses of 100 mg QD and 300 mg QD were selected for the Phase 2 cohort expansion.

[3] = safety in healthy volunteers (food/PPI study)
Source text: The primary endpoints were AUCinf and Cmax. Additional parameters measured included AUClast and Tmax.
The study consisted of 2 independent cohorts: an open-label, randomized, 2-period, crossover Fed/Fasted Cohort to determine food effects; and an open-label, 2-period, fixed sequence PPI Cohort to evaluate interactions with esomeprazole.

AR W742C = target: T2, AR W742C (Homo sapiens, UniProt P10275, W742C); experiment: AR degradation in T-Rex-293 cell line, W742C; type: cell-based; details: T-Rex-293, ELISA
T2 construct: expressed in transfected cells; host or cells: T-REx-293
Source text: as §1, §2

[4] = Fed/Fasted Cohort, 200 mg, 14 healthy participants
[5] = healthy volunteer study, both cohorts

T1 sequence (P10275 whole entry): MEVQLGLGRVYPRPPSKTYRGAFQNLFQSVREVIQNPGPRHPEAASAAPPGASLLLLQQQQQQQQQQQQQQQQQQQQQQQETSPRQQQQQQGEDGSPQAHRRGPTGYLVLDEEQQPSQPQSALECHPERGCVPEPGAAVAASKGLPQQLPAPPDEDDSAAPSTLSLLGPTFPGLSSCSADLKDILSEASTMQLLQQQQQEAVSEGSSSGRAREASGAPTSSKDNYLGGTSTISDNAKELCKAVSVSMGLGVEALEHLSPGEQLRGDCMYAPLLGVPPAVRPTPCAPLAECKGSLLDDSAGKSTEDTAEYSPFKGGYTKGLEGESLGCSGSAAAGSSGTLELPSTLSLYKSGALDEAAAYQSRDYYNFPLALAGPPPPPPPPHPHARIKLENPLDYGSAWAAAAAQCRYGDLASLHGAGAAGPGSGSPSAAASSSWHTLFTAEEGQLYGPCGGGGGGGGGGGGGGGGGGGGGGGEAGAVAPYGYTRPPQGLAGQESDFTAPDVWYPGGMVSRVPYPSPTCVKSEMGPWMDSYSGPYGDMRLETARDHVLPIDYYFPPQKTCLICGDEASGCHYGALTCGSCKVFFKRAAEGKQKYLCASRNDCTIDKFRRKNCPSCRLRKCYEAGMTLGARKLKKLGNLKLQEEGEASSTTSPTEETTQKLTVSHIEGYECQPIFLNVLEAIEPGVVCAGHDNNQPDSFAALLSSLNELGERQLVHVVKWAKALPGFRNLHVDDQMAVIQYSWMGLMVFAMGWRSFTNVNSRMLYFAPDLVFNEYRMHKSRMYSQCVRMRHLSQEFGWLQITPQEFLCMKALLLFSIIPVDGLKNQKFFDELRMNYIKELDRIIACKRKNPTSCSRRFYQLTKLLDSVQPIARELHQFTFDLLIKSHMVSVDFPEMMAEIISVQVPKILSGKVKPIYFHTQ
T2 sequence (P10275 whole entry W742C): as the sequence (P10275 whole entry) above, with W742C counted along it

## COc1cc(O[C@H]2C(C)(C)[C@H](NC(=O)c3ccc(N4CCC(CN5CCN(c6ccc(C(=O)N[C@H]7CCC(=O)NC7=O)c(F)c6)CC5)CC4)cc3)C2(C)C)ccc1C#N [Compound A, 4-(4-((1-(4-(((1R,3R)-3-(4-cyano-3-methoxyphenoxy)-2,2,4,4-tetramethylcyclobutyl)carbamoyl)phenyl)piperidin-4-yl)methyl)piperazin-1-yl)-N—((S)-2,6-dioxopiperidin-3-yl)-2-fluorobenzamide]
AR WT
  DC50: 1.5 nM
[1]
  AUC(0-inf): 3930 ng·h/mL
VCaP tumor xenograft; 0.1 mg/kg/day QD for 24 days, statistically insignificant
  TGI relative to vehicle control: 45%
VCaP tumor xenograft; 0.3 mg/kg/day QD for 24 days, statistically insignificant
  TGI relative to vehicle control: 49%
VCaP tumor xenograft; 1 mg/kg/day QD for 24 days
  TGI relative to vehicle control: 81%
VCaP tumor xenograft; 3 mg/kg/day QD for 24 days, oral gavage
  TGI relative to vehicle control: 100%
VCaP cells
  antiproliferative effects vs enzalutamide: more potent antiproliferative effects than enzalutamide
[2]; QD dosing
  Mean steady state peak/trough ratio: less than 2
  time to steady state: ≤ 3 weeks
[2]; human, plasma, oral, 20 mg, 20 mg QD, individual value (n = 1), read-out: AUC0-24 Day 1
  AUC(0-t): 178 ng·h/mL
[2]; human, plasma, oral, 20 mg, 20 mg QD, individual value (n = 1), read-out: AUC0-24 Day 21
  AUC(0-t): 997 ng·h/mL
[2]; human, plasma, oral, 20 mg, 20 mg QD, individual value (n = 1), read-out: Cmax Day 1
  Cmax: 11.1 ng/mL
[2]; human, plasma, oral, 20 mg, 20 mg QD, individual value (n = 1), read-out: Cmax Day 21
  Cmax: 44.1 ng/mL
[2]; human, plasma, oral, 40 mg, 40 mg QD, individual value (n = 1), read-out: AUC0-24 Day 1
  AUC(0-t): 314 ng·h/mL
[2]; human, plasma, oral, 40 mg, 40 mg QD, individual value (n = 1), read-out: AUC0-24 Day 21
  AUC(0-t): 1300 ng·h/mL
[2]; human, plasma, oral, 40 mg, 40 mg QD, individual value (n = 1), read-out: Cmax Day 1
  Cmax: 19.1 ng/mL
[2]; human, plasma, oral, 40 mg, 40 mg QD, individual value (n = 1), read-out: Cmax Day 21
  Cmax: 60.3 ng/mL
[2]; human, plasma, oral, 80 mg, 80 mg QD, individual value (n = 1), read-out: AUC0-24 Day 1
  AUC(0-t): 432 ng·h/mL
[2]; human, plasma, oral, 80 mg, 80 mg QD, individual value (n = 1), read-out: AUC0-24 Day 21
  AUC(0-t): 3110 ng·h/mL
[2]; human, plasma, oral, 80 mg, 80 mg QD, individual value (n = 1), read-out: Cmax Day 1
  Cmax: 22.2 ng/mL
[2]; human, plasma, oral, 80 mg, 80 mg QD, individual value (n = 1), read-out: Cmax Day 21
  Cmax: 139 ng/mL
[2]; male, human, plasma, oral, 100 mg, 100 mg QD (N=6), Cycle 1 Day 21, read-out: mean steady-state AUC0-24
  AUC(0-t): 4610 ng·h/mL
[2]; male, human, plasma, oral, 100 mg, 100 mg QD, Mean (CV %), read-out: AUC0-24 Day 1
  AUC(0-t): 816 ng·h/mL
[2]; male, human, plasma, oral, 100 mg, 100 mg QD, Mean (CV %), read-out: AUC0-24 Day 21
  AUC(0-t): 4610 ng·h/mL
[2]; male, human, plasma, oral, 100 mg, 100 mg QD, Mean (CV %), read-out: Cmax Day 1
  Cmax: 45.1 ng/mL
[2]; male, human, plasma, oral, 100 mg, 100 mg QD, Mean (CV %), read-out: Cmax Day 21
  Cmax: 233 ng/mL
[2]; male, human, plasma, oral, 160 mg, 160 mg QD, Mean (CV %), read-out: AUC0-24 Day 1
  AUC(0-t): 2050 ng·h/mL
[2]; male, human, plasma, oral, 160 mg, 160 mg QD, Mean (CV %), read-out: AUC0-24 Day 21
  AUC(0-t): 8450 ng·h/mL
[2]; male, human, plasma, oral, 160 mg, 160 mg QD, Mean (CV %), read-out: Cmax Day 1
  Cmax: 125 ng/mL
[2]; male, human, plasma, oral, 160 mg, 160 mg QD, Mean (CV %), read-out: Cmax Day 21
  Cmax: 445 ng/mL
[2]; male, human, plasma, oral, 200 mg, 200 mg QD, Mean (CV %), read-out: AUC0-24 Day 1
  AUC(0-t): 1830 ng·h/mL
[2]; male, human, plasma, oral, 200 mg, 200 mg QD, Mean (CV %), read-out: AUC0-24 Day 21
  AUC(0-t): 11500 ng·h/mL
[2]; male, human, plasma, oral, 200 mg, 200 mg QD, Mean (CV %), read-out: Cmax Day 1
  Cmax: 110 ng/mL
[2]; male, human, plasma, oral, 200 mg, 200 mg QD, Mean (CV %), read-out: Cmax Day 21
  Cmax: 559 ng/mL
[2]; male, human, plasma, oral, 300 mg, 300 mg QD, Mean (CV %), read-out: AUC0-24 Day 1
  AUC(0-t): 2220 ng·h/mL
[2]; male, human, plasma, oral, 300 mg, 300 mg QD, Mean (CV %), read-out: AUC0-24 Day 21
  AUC(0-t): 14900 ng·h/mL
[2]; male, human, plasma, oral, 300 mg, 300 mg QD, Mean (CV %), read-out: Cmax Day 1
  Cmax: 119 ng/mL
[2]; male, human, plasma, oral, 300 mg, 300 mg QD, Mean (CV %), read-out: Cmax Day 21
  Cmax: 672 ng/mL
[2]; male, human, plasma, oral, 320 mg, 320 mg QD, Mean (CV %), read-out: AUC0-24 Day 1
  AUC(0-t): 3990 ng·h/mL
[2]; male, human, plasma, oral, 320 mg, 320 mg QD, Mean (CV %), read-out: AUC0-24 Day 21
  AUC(0-t): 23100 ng·h/mL
[2]; male, human, plasma, oral, 320 mg, 320 mg QD, Mean (CV %), read-out: Cmax Day 1
  Cmax: 223 ng/mL
[2]; male, human, plasma, oral, 320 mg, 320 mg QD, Mean (CV %), read-out: Cmax Day 21
  Cmax: 1070 ng/mL
[2]; male, human, plasma, oral, 400 mg, 400 mg QD, Mean (CV %), read-out: AUC0-24 Day 1
  AUC(0-t): 3350 ng·h/mL
[2]; male, human, plasma, oral, 400 mg, 400 mg QD, Mean (CV %), read-out: AUC0-24 Day 21
  AUC(0-t): 11900 ng·h/mL
[2]; male, human, plasma, oral, 400 mg, 400 mg QD, Mean (CV %), read-out: Cmax Day 1
  Cmax: 232 ng/mL
[2]; male, human, plasma, oral, 400 mg, 400 mg QD, Mean (CV %), read-out: Cmax Day 21
  Cmax: 526 ng/mL
[2]; male, human, plasma, oral, 480 mg, 480 mg QD, Mean (CV %), read-out: AUC0-24 Day 1
  AUC(0-t): 2540 ng·h/mL
[2]; male, human, plasma, oral, 480 mg, 480 mg QD, Mean (CV %), read-out: AUC0-24 Day 21
  AUC(0-t): 12900 ng·h/mL
[2]; male, human, plasma, oral, 480 mg, 480 mg QD, Mean (CV %), read-out: Cmax Day 1
  Cmax: 145 ng/mL
[2]; male, human, plasma, oral, 480 mg, 480 mg QD, Mean (CV %), read-out: Cmax Day 21
  Cmax: 644 ng/mL
[2]; male, human, plasma, oral, 500 mg, 500 mg QD, Mean (CV %), read-out: AUC0-24 Day 1
  AUC(0-t): 3590 ng·h/mL
[2]; male, human, plasma, oral, 500 mg, 500 mg QD, Mean (CV %), read-out: AUC0-24 Day 21
  AUC(0-t): 15000 ng·h/mL
[2]; male, human, plasma, oral, 500 mg, 500 mg QD, Mean (CV %), read-out: Cmax Day 1
  Cmax: 203 ng/mL
[2]; male, human, plasma, oral, 500 mg, 500 mg QD, Mean (CV %), read-out: Cmax Day 21
  Cmax: 703 ng/mL
[2]; male, human, plasma, oral, QD dosing, mCRPC participants, read-out: effective mean T1/2
  half-life: 83 to 111 h
[2]; male, human, plasma, oral administration, mCRPC participants, read-out: median Tmax
  Tmax: ~8 h
[3]; Fed/Fasted Cohort
  severity of TEAEs: All TEAEs were Grade 1
[3]; [4]
  headache (TEAE): 4 (28.6%) participants
  participants reporting TEAEs: 5 (35.7%) participants
  participants with at least one TEAE considered related to Compound A: 3 (21.4%) participants
[3]; Fed/Fasted Cohort, Grade 1
  TRAE dizziness: 1 participant
  TRAE fatigue: 1 participant
  TRAE headache: 2 participants
[3]; PPI Cohort
  TEAEs of Grade 3 or higher: no TEAEs of Grade 3 or higher
[3]; PPI Cohort, 300 mg, 16 healthy participants
  participants reporting TEAEs: 8 (50.0%) participants
[3]; PPI Cohort, pain in the extremity and CRP increased
  participants with Grade 2 events: 2 (12.5%) participants
[3]; healthy male participants, fasting, fed, or with esomeprazole
  tolerability of a single oral dose: generally well tolerated
[3]; [5]
  deaths, SAEs, discontinuations due to AEs: no deaths, SAEs, or participant discontinuations due to AEs
  laboratory results, vital signs, physical examinations, 12-lead ECGs, C-SSRS: no clinically significant findings
AR W742C
  DC50: 2.7 nM
